pIC50: −log10 of the molar value.

T1 sequence (P01116 1-169 isoform P01116-2 G12V): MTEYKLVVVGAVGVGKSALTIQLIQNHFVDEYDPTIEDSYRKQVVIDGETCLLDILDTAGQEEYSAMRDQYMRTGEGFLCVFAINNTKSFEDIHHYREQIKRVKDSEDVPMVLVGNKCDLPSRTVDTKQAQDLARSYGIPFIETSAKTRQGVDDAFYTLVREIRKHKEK

This assay has as its target T1, GDP-KRAS G12V (Homo sapiens, UniProt P01116, G12V).
T1 construct: GDP-loaded HIS-KRAS(G12V, aa 1-169)
The experiment in a line: SOS1 catalyzed nucleotide exchange assay (TR-FRET). The settings on record: GDP-loaded HIS-KRAS(G12V, aa 1-169) 10-15 nM; 0.5 μM SOS1 ExD; 80 nM BODIPY FL GTP; 15 min pre-incubation, 4 hours at 25 °C. The class given is biochemical. As for the experimental part: GDP-loaded HIS-KRAS(G12V, aa 1-169) was pre-incubated with a compound in the presence of 10 nM GDP in a 384-well plate (Greiner) for 15 min, then purified SOS1 ExD (Flag tag, aa 564-1049), BODIPY™ FL GTP (Invitrogen) and MAb (monoclonal antibody) Anti 6HIS-Tb cryptate Gold (Cisbio) were added to the assay wells (Final concentration: 10-15 nM GDP-loaded HIS-KRAS(G12V), 5 nM GDP, 0.5 μM SOS1 ExD, 80 nM BODIPY™ FL GTP, 52.5 ng/mL MAb Anti 6HIS-Tb cryptate Gold) and incubated for 4 hours at 25 °C. Wells containing same percent of DMSO served as vehicle control, and wells without KRAS served as low control. TR-FRET signals were read on Tecan Spark multimode microplate reader. The parameters were F486: Excitation 340 nm, Emission 486 nm, Lag time 100 μs, Integration time 200 μs; F520: Excitation 340 nm, Emission 520 nm, Lag time 100 μs, Integration time 200 μs. TR-FRET ratios for each individual wells were calculated by equation: TR-FRET ratio=(Signal F520/Signal F486)*10000. The percent of activation of compounds treated wells were normalized between vehicle control and low control (% Activation=(TR-FRET ratioCompound treated−TR-FRET ratioLow control)/(TR-FRET ratioVehicle control−TR-FRET ratioLow control)*100%). Then the data were analyzed either by fitting a 4-parameter logistic model or by Excel to calculate IC50 values.
Background: In TR-FRET formats the signal depends on donor and acceptor labels being close together.
One may read the pIC50 as the negative decadic logarithm of the IC50, by convention in mol/L. `C#Cc1c(F)ccc2cc(O)cc(-c3nc4c5c(nc(OC[C@@]67CCCN6C[C@H](F)C7)nc5c3F)N(C)C3CC3N4C)c12` (mixture of isomers) [Compound 2] gave a pIC50 of 7.58.
As for `C#Cc1c(F)ccc2cc(O)cc(-c3nc4c5c(nc(OCC67CCCN6CC(F)C7)nc5c3F)N(C)C3CCCC3N4C)c12` (centres unmarked) [Compound 1], the pIC50 is 8.36.
The result for `C#Cc1c(F)ccc2cc(N)cc(-c3nc4c5c(nc(OCC67CCCN6CC(F)C7)nc5c3F)N(C)C3COCC3N4C)c12` (centres unmarked) [Compound 5] reads 8.25; that for `C#Cc1c(F)ccc2cc(O)cc(-c3nc4c5c(nc(OC[C@@]67CCCN6C[C@H](F)C7)nc5c3F)N(C)C3COCC3N4C)c12` (mixture of isomers) [Compound 3], 9.12.
The result for `C#Cc1c(F)ccc2cc(O)cc(-c3nc4c5c(nc(OC[C@@]67CCCN6C[C@H](F)C7)nc5c3F)N(C)[C@H]3COC[C@H]3N4)c12` [Compound 4] reads 8.87.

Source of the values: patent US20260365672A1, “K-RAS MUTANT PROTEIN INHIBITORS” (Jacobio Pharmaceuticals Co., Ltd., priority 2022, published 2026).
